# Entries after “also recorded” stand apart in the source; their conditions may differ.
# Key:
# B16F10 melanoma cells = assay: B16F10 melanoma tumor volume over time; type: in vivo, mice; settings: omega-6 rich diet; 5 mg/kg/day via drinking water + anti-CTLA4; vs either agent alone
# Method: (§1) (A) MB49 bladder cancer tumor volume over time. Following 12 days of pre-treatment with the omega-6 rich diet, tumor cells (1×10^6 MB49 bladder cancer cells) were injected subcutaneously into the mid dorsum. Once tumors reached ˜200 mm^3, treatment was initiated with anti-PD1 (200 μg Q3D), EC5026 (5 mg/kg/day via drinking water), combination anti-PD1+EC5026, or no treatment (control). […] N=3-5 mice per group. P<0.05. (B) B16F10 melanoma tumor volume over time. […]. Following 12 days of pre-treatment with the omega-6 rich diet, tumor cells (1×10^6 B16F10 melanoma cells) were injected subcutaneously into the mid dorsum. Once tumors reached ˜200 mm^3, treatment was initiated with anti-CTLA4 (200 μg 1st dose, then 100 μg Q3D), 1770 (5 mg/kg/day via drinking water), combination 1770+anti-CTLA4, or no treatment (control). […] N=4-5 mice per group.
# (A) MB49 bladder cancer tumor volume over time. Following 12 days of pre-treatment with the omega-3 rich diet or control diet, tumor cells (1×10^6 MB49 bladder cancer cells) were injected subcutaneously into the mid dorsum. Once tumors reached ˜200 mm^3, treatment was initiated with either anti-PD1 (200 μg Q3D) or no treatment (control). […] N=3-5 mice per group. p<0.0001. (B) Prostate cancer (RM1) tumor volume over time. […]
# oxylipin = assay: LCMS/MS oxylipin analysis of MB49 bladder cancer tumor tissue; type: in vivo; settings: mice on the control diet only
# Method: These lipid mediators are potential biomarkers of bladder cancer and the anti-tumor response to the diets (e.g. omega-3 or omega-6 fatty acids), immunotherapy (e.g., anti-PD1), and sEH inhibitor (e.g., 5026). (A) Heatmap of LCMS/MS oxylipin analysis performed on murine MB49 bladder cancer tumor tissue. […] Tumor tissue from mice treated with the control diet only. […] Tumor tissue from mice treated with the control diet only.
# [1] = system: MB49 bladder cancer cells; assay: Murine bladder cancer model (MB49), subcutaneous tumor growth; type: in vivo, mice; settings: for MB49 tumor volume, combination with anti-PD1: omega-6 rich diet, 5 mg/kg/day via drinking water + anti-PD1 200 μg Q3D, vs either agent alone, P<0.05
# From the text: 10^6 MB49 cells were introduced into mice, and treatment was initiated with established tumors (˜200 mm^3), seven days after tumor injection. The CTLA-4 antibody used is from BioCell, Catalog number BE0131; In VivoMAb anti-mouse CTLA-4 (CD152). See, FIG. 1A and FIG. 1B.
# The mice in this study were randomized, and treatment was initiated with established tumors (˜200 mm^3), seven days after […]. See, FIG. 2A-2C; FIG. 9A-9F.
# (A & B). Mice were inoculated subcutaneously with 1×10^6 MB49 cells. Treatment initiated when MB49 tumors reached ˜200 mm^3. Mice were randomized and treated with PTUPB (60 mg/kg Q3D, orally) or chemotherapy (cisplatin+gemcitabine; cisplatin=5 mg/kg, gemcitabine=75 mg/kg, Q3D). Mice were sacrificed after 16 days of treatment. n=4-5 mice/group. Gene expression levels of sEH and COX-2 in tumor tissue after 16 days of treatment. Analyzed by qPCR and normalized by GAPDH. A: **Control vs chemotherapy (p=0.0099), **PTUPB vs chemotherapy (p=0.0095); B. **Control vs chemotherapy (p=0.0072), ***PTUPB vs chemotherapy (p=0.0001). (C) Mice were inoculated subcutaneously with 1×10^6 MB49 cells. Treatment initiated when MB49 tumors reached ˜200 mm^3. Mice were randomized and treated with combinations of PTUPB (60 mg/kg Q3D, orally), anti-PD1 (200 μg Q3D), anti-CTLA4 ([…]), chemotherapy (cisplatin+gemcitabine; cisplatin=5 mg/kg, gemcitabine=75 mg/kg, Q3D). Mice were sacrificed after 16 days of treatment. n=4-5 mice/group. *p<0.05. (D and E). Gene expression levels of EGF and VEGF-C in tumor tissue after 16 days of treatment. Analyzed by qPCR and normalized by GAPDH. D: *chemotherapy vs chemotherapy+PTUPB (p=0.0136); E: **Control vs anti-CTLA4 (p=0.0012), **PTUPB vs anti-CTLA4 (p=0.0081), **anti-CTLA4 vs anti-CTLA4+PTUPB (0.0296). (F) Mice were inoculated orthotopically into the bladder wall with 5×10^5 MB49 cells. Treatment was initiated 3 days after tumor injection with PTUPB (60 mg/kg Q3D, orally). n=5 mice per group. **PTUPB vs control (p=0.0018).
# as §1
# FIGS. 6A-6E Dietary omega-3 supplementation inhibits tumor growth in both fast-growing and slow-growing tumor models in mice. (A) Prostate cancer (RM1) tumor growth over time. Following 12 days of pre-treatment with the omega-3 rich diet or control diet, tumor cells (1×10^5 RM1 prostate cancer cells) were injected subcutaneously into the mid dorsum. […] N=3-5 mice/group. (B) MB49 bladder cancer tumor volume over time. Following 12 days of pre-treatment with the omega-3 rich diet or control diet, tumor cells (1×10^6 MB49 bladder cancer cells) were injected subcutaneously. […] N=3-5 mice/group. […]
structure (smiles),measurement,setting,value
CCC(=O)N1CCC(NC(=O)Nc2ccc(OC(F)(F)F)cc2)CC1 [Compound 1770],"B16F10 melanoma tumor volume, combination with anti-CTLA4",B16F10 melanoma cells,tended to have smaller tumors
CC[C@H](C)C(=O)N1CCC(NC(=O)Nc2ccc(OC(F)(F)F)c(F)c2)CC1 [EC5026],"levels of 7,8-DiHDPE, 17,18-DiHETE, and 15,16-DiHODE in MB49 bladder cancer tissue",oxylipin,prevented this increase
same,"levels of 15(16)-EpODE, 12(13)-EpOME, 17(18)-EpETE and 14(15)-EpETrE in MB49 bladder cancer tissue",oxylipin,"prevented the drop in these metabolites, and increased levels of these metabolites compared to controls"
same,"MB49 tumor volume, combination with anti-PD1",[1]; 5 mg/kg/day,significantly smaller tumors
same,"MB49 tumor volume, combination with anti-PD1","[1]; listed as 5026, 5 mg/kg/day",unexpected induction of tumor regression; also recorded: synergizes with immunotherapy
NS(=O)(=O)c1ccc(-n2nc(CCCNC(=O)Nc3ccc(C(F)(F)F)cc3)cc2-c2ccccc2)cc1 [PTUPB],"tumor growth, combination with immunotherapy (anti-CTLA-4)","[1]; 10^6 MB49 cells, established tumors (~200 mm^3), seven days after tumor injection, FIG. 1",unexpected induction of tumor regression; also recorded: enhances immunotherapy
same,"tumor growth, alone and with chemotherapy or immunotherapy","[1]; PTUPB 60 mg/kg Q3D orally, MB49, FIG. 9",blocks tumor growth and enhances chemotherapy and immunotherapy
same,"tumor growth, combination with chemotherapy (gemcitabine and cisplatin) and immunotherapy","[1]; established MB49 tumors (~200 mm^3), 16 days of treatment, FIG. 2, FIG. 9",unexpected induction of tumor regression; also recorded: induce tumor regression
